Results taken from patent publication US8461328B2, “Tricyclic heterocyclic compounds, compositions and methods of use thereof” (Genentech, Inc., priority 2010, dated 2013).

How the values were obtained:
Type in all cases: biochemical
JAK1 = biological target: T1, JAK1 (Homo sapiens, UniProt P23458); assay: JAK1 inhibition (Table 4); conditions: read-out: JAK1 Ki
T1 construct: made in house; host or cells: SF9 insect cells (baculovirus)

JAK2 = biological target: T2, JAK2 (Homo sapiens, UniProt O60674); assay: JAK2 inhibition (Table 4); conditions: read-out: JAK2 Ki
T2 construct: made in house; host or cells: SF9 insect cells (baculovirus)
T2 sequence (O60674 812-1132): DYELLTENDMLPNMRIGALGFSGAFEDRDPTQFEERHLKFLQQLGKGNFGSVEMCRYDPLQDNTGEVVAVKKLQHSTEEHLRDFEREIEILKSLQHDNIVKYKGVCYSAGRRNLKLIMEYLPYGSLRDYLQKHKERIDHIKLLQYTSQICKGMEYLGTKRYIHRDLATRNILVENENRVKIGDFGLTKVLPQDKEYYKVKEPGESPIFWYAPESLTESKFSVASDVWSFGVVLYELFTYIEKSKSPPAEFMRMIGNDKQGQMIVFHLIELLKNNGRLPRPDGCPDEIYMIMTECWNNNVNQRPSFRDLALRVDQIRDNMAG

JAK3 = biological target: T3, JAK3 (Homo sapiens, UniProt P52333); assay: JAK3 inhibition (Table 4); conditions: read-out: JAK3 Ki
T3 construct: made in house; host or cells: SF9 insect cells (baculovirus)
T3 sequence (P52333 783-1124): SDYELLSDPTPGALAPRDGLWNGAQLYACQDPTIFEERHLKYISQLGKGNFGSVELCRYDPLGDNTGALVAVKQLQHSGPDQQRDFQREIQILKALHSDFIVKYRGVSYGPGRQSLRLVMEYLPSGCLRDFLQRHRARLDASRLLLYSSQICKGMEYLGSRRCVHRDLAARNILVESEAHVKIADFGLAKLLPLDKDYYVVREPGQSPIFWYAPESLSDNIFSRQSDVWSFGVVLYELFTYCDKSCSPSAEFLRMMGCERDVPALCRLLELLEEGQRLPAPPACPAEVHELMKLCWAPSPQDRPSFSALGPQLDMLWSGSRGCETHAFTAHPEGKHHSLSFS

TYK2 = biological target: T4, TYK2 (Homo sapiens, UniProt P29597); assay: TYK2 inhibition (Table 4)
T4 construct: made in house; host or cells: SF9 insect cells (baculovirus)
T4 sequence (P29597 873-1187): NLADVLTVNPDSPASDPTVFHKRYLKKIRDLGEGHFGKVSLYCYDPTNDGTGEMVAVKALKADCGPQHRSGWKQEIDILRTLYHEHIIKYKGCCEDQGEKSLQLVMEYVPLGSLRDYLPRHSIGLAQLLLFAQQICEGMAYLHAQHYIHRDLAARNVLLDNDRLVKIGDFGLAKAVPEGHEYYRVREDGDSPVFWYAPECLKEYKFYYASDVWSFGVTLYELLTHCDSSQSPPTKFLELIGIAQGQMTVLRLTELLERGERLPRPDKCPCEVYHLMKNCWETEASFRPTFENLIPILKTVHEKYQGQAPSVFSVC

T1 sequence (P23458 852-1154): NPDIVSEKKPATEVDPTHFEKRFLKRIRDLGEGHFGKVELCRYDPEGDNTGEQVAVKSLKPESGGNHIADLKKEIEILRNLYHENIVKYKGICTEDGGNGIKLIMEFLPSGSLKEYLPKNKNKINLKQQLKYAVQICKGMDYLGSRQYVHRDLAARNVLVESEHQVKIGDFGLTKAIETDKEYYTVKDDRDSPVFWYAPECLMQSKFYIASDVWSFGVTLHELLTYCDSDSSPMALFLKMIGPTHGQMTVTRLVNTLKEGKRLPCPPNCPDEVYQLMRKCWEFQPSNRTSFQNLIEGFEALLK

Compound `c1ccc(CN2CCC(n3c(C4CNC4)nc4cnc5[nH]ccc5c43)CC2)cc1` [Example 162, 2-Azetidin-3-yl-1-(1-benzyl-piperidin-4-yl)-1,6-dihydro-1,2,3,5,6-tetraaza-as-indacene] has a Ki (JAK1) of 7.45 nM, a Ki (JAK2) of 23.1 nM and a Ki (JAK3) of 46.8 nM. For the same compound, the Ki (TYK2) was 677 nM.
Compound `CS(=O)(=O)NCc1nc2cnc3[nH]ccc3c2n1C1CC2CCC1O2` (stereo not shown) [Example 925, N-[1-(7-Oxa-bicyclo[2.2.1]hept-2-yl)-1,6-dihydro-1,3,5,6-tetraaza-as-indacen-2-ylmethyl]-methanesulfonamide] has a Ki (JAK1) of 30 nM, a Ki (JAK2) of 252 nM and a Ki (JAK3) of 555 nM. For the same compound, the Ki (TYK2) was 338 nM.
`CCN1CC[C@@H](n2c(C)nc3cnc4[nH]ccc4c32)[C@@H](F)C1` [Example 521, 1-((3S,4R)-1-Ethyl-3-fluoro-piperidin-4-yl)-2-methyl-1,6-dihydro-1,3,5,6-tetraaza-as-indacene] showed a Ki (JAK1) of 3.48 nM, a Ki (JAK2) of 7.04 nM and a Ki (JAK3) of 25.4 nM. The Ki (TYK2) was 48.8 nM.
`O=C(CN1CCC[C@@H](n2cnc3cnc4[nH]ccc4c32)C1)c1ccccc1` [Example 225, 1-Phenyl-2-[(R)-3-(6H-1,3,5,6-tetraaza-as-indacen-1-yl)-piperidin-1-yl]-ethanone] gave a Ki (JAK1) of 59.6 nM, a Ki (JAK2) of 127 nM and a Ki (JAK3) of 118 nM. The Ki (TYK2) was 817 nM.
With `Cc1n[nH]c(C)c1CCc1nc2cnc3[nH]ccc3c2n1C1CCOCC1` [Example 471, 2-[2-(3,5-Dimethyl-1H-pyrazol-4-yl)-ethyl]-1-(tetrahydro-pyran-4-yl)-1,6-dihydro-1,3,5,6-tetraaza-as-indacene] the Ki (JAK1) was 278 nM, the Ki (JAK2) was 781 nM and the Ki (JAK3) was 727 nM. The Ki (TYK2) was 793 nM.
Work on `Cc1nc2cnc3[nH]ccc3c2n1C1CCC2CC(=O)NC2C1` (single isomer, unassigned) [Example 112, 6-(2-Methyl-6H-1,2,3,5,6-tetraaza-as-indacen-1-yl)-octahydro-indol-2-one] yielded a Ki (JAK1) of 4.09 nM, a Ki (JAK2) of 10.8 nM and a Ki (JAK3) of 63.4 nM. The Ki (TYK2) was 17.5 nM.
`N#CCCN1CCCCC(n2cnc3cnc4[nH]ccc4c32)C1` (racemic) [Example 989, 3-[3-(6H-1,3,5,6-Tetraaza-as-indacen-1-yl)-azepan-1-yl]-propionitrile] showed a Ki (JAK1) of 10.9 nM, a Ki (JAK2) of 14.6 nM and a Ki (JAK3) of 39.4 nM. The Ki (TYK2) was 42 nM.
With `C[C@@H](O)c1nc2cnc3[nH]ccc3c2n1[C@@H]1CCCN(C(=O)C2CCC2)C1` [Example 792, Cyclobutyl-{(R)-3-[2-((R)-1-hydroxy-ethyl)-6H-1,3,5,6-tetraaza-as-indacen-1-yl]-piperidin-1-yl}-methanone] the Ki (JAK1) was 76.4 nM, the Ki (JAK2) was 260 nM and the Ki (JAK3) was 1060 nM. It also gave a Ki (TYK2) of 448 nM.
In the case of `Cc1nc2cnc3[nH]ccc3c2n1C1CCN(CC(O)CO)CC1` (stereo not shown) [Example 698, 3-[4-(2-Methyl-6H-1,2,3,5,6-tetraaza-as-indacen-1-yl)-piperidin-1-yl]-propane-1,2-diol], the Ki (JAK1) is reported as 6.41 nM, the Ki (JAK2) is reported as 25.6 nM and the Ki (JAK3) is reported as 66.9 nM. It also gave a Ki (TYK2) of 74.4 nM.
`Cn1ncc2c1CC[C@@H](n1cnc3cnc4[nH]ccc4c31)C2` [Example 955, 1-((R)-1-Methyl-4,5,6,7-tetrahydro-1H-indazol-5-yl)-1,6-dihydro-1,3,5,6-tetraaza-as-indacene] showed a Ki (JAK1) of 7.67 nM, a Ki (JAK2) of 8.9 nM and a Ki (JAK3) of 109 nM. For the same compound, the Ki (TYK2) was 53.6 nM.
For `OCc1nc2cnc3[nH]ccc3c2n1C1CCN(Cc2cccnc2)CC1` [Example 278, [1-(1-Pyridin-3-ylmethyl-piperidin-4-yl)-1,6-dihydro-1,3,5,6-tetraaza-as-indacen-2-yl]-methanol], the Ki (JAK1) was 1.52 nM, the Ki (JAK2) was 5.19 nM and the Ki (JAK3) was 6.41 nM. The Ki (TYK2) was 54.4 nM.
`O=C1CCCN1Cc1nc2cnc3[nH]ccc3c2n1C1CCN(Cc2ccccc2)CC1` [Example 24, 1-[1-(1-Benzyl-piperidin-4-yl)-1,6-dihydro-1,2,3,5,6-tetraaza-as-indacen-2-ylmethyl]-pyrrolidin-2-one] gave a Ki (JAK1) of 10.4 nM, a Ki (JAK2) of 68.6 nM and a Ki (JAK3) of 29.2 nM. For the same compound, the Ki (TYK2) was 735 nM.
`N#CC1CCN([C@H]2CC[C@H](n3c(CO)nc4cnc5[nH]ccc5c43)CC2)CC1` [Example 613, Trans 1-[4-(2-hydroxymethyl-6H-1,2,3,5,6-tetraaza-as-indacen-1-yl)-cyclohexyl]-piperidine-4-carbonitrile] was tested, and the Ki (JAK1) was 2.58 nM, the Ki (JAK2) was 15.1 nM and the Ki (JAK3) was 318 nM. It also gave a Ki (TYK2) of 14.5 nM.
With `C[C@@H](O)c1nc2cnc3[nH]ccc3c2n1C1CCC(CC#N)CC1` (stereo partly drawn) [Example 1001, {4-[2-((R)-1-Hydroxy-ethyl)-6H-1,3,5,6-tetraaza-as-indacen-1-yl]-cyclohexyl}-acetonitrile] the Ki (JAK1) was 1.15 nM, the Ki (JAK2) was 13 nM and the Ki (JAK3) was 16.7 nM. The Ki (TYK2) was 2.22 nM.
Compound `N#CCCN1CCC(n2c(CC3CCCOC3)nc3cnc4[nH]ccc4c32)CC1` (racemic) [Example 409, 3-{4-[2-(Tetrahydro-pyran-3-ylmethyl)-6H-1,3,5,6-tetraaza-as-indacen-1-yl]-piperidin-1-yl}-propionitrile] has a Ki (JAK1) of 26.2 nM, a Ki (JAK2) of 125 nM and a Ki (JAK3) of 126 nM. It also gave a Ki (TYK2) of 321 nM.
`CC(C)(O)[C@H]1CC[C@H](n2cnc3cnc4[nH]ccc4c32)CC1` [Example 148, Trans 2-[4-(6H-1,2,3,5,6-Tetraaza-as-indacen-1-yl)-cyclohexyl]-propan-2-ol] showed a Ki (JAK1) of 1.73 nM, a Ki (JAK2) of 1.92 nM and a Ki (JAK3) of 23.8 nM. For the same compound, the Ki (TYK2) was 12.3 nM.
For `CC(C)(O)[C@H]1CC[C@@H](n2cnc3cnc4[nH]ccc4c32)CC1` [Example 957, Cis-2-[4-(6H-1,3,5,6-Tetraaza-as-indacen-1-yl)-cyclohexyl]-propan-2-ol], the Ki (JAK1) was 50 nM, the Ki (JAK2) was 60.2 nM and the Ki (JAK3) was 210 nM. The Ki (TYK2) was 174 nM.
`Cc1nc2cnc3[nH]ccc3c2n1[C@H]1CC[C@H](NCC(F)(F)F)CC1` [Example 591, Trans[4-(2-methyl-6H-1,2,3,5,6-tetraaza-as-indacen-1-yl)-cyclohexyl]-(2,2,2-trifluoro-ethyl)-amine] was tested, and the Ki (JAK1) was 0.64 nM, the Ki (JAK2) was 1.87 nM and the Ki (JAK3) was 13 nM. The Ki (TYK2) was 2.51 nM.
For `O=C(CS(=O)(=O)c1ccccc1)N1CCC[C@@H](n2cnc3cnc4[nH]ccc4c32)C1` [Example 76, 2-Benzenesulfonyl-1-[(R)-3-(6H-1,3,5,6-tetraaza-as-indacen-1-yl)-piperidin-1-yl]ethanone], the Ki (JAK1) was 51.7 nM, the Ki (JAK2) was 73 nM and the Ki (JAK3) was 232 nM. For the same compound, the Ki (TYK2) was 531 nM.
For `N#CCCn1ncc2c1CC[C@@H](n1cnc3cnc4[nH]ccc4c31)C2` [Example 992, 3-[(R)-5-(6H-1,3,5,6-Tetraaza-as-indacen-1-yl)-4,5,6,7-tetrahydro-indazol-1-yl]-propionitrile], the Ki (JAK1) was 17.8 nM, the Ki (JAK2) was 37.3 nM and the Ki (JAK3) was 253 nM. It also gave a Ki (TYK2) of 108 nM.
With `Cc1nc2cnc3[nH]ccc3c2n1C1CCN(CC(F)F)CC1` [Example 762, 1-[1-(2,2-Difluoro-ethyl)-piperidin-4-yl]-2-methyl-1,6-dihydro-1,3,5,6-tetraaza-as-indacene] the Ki (JAK1) was 0.89 nM, the Ki (JAK2) was 2.65 nM and the Ki (JAK3) was 5.51 nM. For the same compound, the Ki (TYK2) was 4.88 nM.
Compound `CC(C)N1CCC(n2cnc3cnc4[nH]ccc4c32)CC1` [Example 549, 1-(1-Isopropyl-piperidin-4-yl)-1,6-dihydro-1,3,5,6-tetraaza-as-indacene] has a Ki (JAK1) of 92.4 nM, a Ki (JAK2) of 182 nM and a Ki (JAK3) of 3490 nM. The Ki (TYK2) was 809 nM.
